For 18 molecules, IC50 results are on record in patent US10562898B2, “Substituted benzenesulfonamides as inhibitors of alpha-4 beta-7 integrin activity” (EA PHARMA CO., LTD., priority 2016, dated 2020).

In the experiment the target is T1, α4β7 integrin (Homo sapiens, UniProt P13612+P26010).
T1 construct: a cell line RPMI-8866, which is known to express α4β7 integrin; endogenous in cells; host or cells: RPMI-8866 (human B cell line)
T1 sequence (P13612 34-1032): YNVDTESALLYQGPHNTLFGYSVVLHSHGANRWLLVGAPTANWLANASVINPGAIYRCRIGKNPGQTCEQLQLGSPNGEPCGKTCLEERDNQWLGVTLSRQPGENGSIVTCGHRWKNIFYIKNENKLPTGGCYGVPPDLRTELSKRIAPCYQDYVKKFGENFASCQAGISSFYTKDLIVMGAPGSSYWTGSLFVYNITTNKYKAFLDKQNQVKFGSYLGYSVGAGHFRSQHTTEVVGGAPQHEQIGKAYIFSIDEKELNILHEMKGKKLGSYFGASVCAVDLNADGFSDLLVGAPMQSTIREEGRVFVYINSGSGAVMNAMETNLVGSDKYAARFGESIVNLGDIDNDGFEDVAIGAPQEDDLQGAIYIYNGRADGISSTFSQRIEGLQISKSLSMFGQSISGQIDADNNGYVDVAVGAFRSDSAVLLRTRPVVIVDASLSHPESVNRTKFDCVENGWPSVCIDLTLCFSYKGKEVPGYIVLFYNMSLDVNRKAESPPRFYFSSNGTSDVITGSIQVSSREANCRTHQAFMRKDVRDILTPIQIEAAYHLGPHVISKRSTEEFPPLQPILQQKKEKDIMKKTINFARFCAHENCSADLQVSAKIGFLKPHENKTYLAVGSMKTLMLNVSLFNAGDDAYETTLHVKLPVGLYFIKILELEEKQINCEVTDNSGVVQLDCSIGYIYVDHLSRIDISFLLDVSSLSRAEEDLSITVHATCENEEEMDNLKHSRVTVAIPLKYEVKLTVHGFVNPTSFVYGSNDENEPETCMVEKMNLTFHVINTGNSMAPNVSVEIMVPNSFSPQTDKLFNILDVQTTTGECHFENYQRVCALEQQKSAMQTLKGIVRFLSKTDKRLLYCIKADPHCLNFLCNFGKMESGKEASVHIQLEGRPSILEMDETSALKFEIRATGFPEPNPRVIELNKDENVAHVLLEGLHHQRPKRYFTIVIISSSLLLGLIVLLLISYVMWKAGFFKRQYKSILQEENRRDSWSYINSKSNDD
T1 sequence (P26010 20-798): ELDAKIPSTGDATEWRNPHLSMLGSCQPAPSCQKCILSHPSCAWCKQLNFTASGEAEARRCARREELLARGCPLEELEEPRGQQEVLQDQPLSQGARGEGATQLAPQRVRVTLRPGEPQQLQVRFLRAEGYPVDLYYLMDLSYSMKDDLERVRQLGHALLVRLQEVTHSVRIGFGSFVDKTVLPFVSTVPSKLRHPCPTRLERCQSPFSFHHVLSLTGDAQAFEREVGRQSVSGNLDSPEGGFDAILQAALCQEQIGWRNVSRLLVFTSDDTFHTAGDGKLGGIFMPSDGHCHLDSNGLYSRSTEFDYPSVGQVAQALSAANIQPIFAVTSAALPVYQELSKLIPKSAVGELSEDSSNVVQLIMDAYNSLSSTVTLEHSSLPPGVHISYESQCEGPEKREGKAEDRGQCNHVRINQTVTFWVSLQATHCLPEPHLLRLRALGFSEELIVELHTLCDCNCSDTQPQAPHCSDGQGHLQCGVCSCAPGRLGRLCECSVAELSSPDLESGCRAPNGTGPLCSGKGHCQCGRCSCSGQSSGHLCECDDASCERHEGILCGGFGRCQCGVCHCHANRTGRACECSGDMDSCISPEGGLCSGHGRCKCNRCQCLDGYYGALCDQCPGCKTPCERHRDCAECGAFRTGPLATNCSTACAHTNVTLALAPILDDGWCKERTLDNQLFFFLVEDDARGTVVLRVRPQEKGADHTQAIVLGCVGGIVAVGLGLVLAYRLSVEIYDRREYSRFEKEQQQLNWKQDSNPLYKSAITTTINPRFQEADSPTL
As to the kind of experiment: MAdCAM-1/α4β7 integrin binding inhibitory activity evaluation test in presence of serum. It counts as cell-based. As to conditions: RPMI-8866 cells, recombinant mouse MAdCAM-1/Fc, 50% human serum; read-out: α4β7 Serum Added IC50. Here is the method: (3) MAdCAM-1/α4β7 Integrin Binding Inhibitory Activity Evaluation Test in Presence of Serum (1)
Each test substance was measured in terms of an ability to inhibit the MAdCAM-1 binding of a human B cell line, namely, a cell line RPMI-8866, which is known to express α4β7 integrin.
A solution of recombinant mouse MAdCAM-1/Fc (R&D Systems, Inc.) (1 μg/mL) diluted with a buffer A (carbonate buffer, pH 9.6) was added in an amount of 50 μL/well to a 96-well microtiter plate, followed by incubation at 4° C. overnight. After the plate was washed with PBS once, 150 μL/well of Block Ace (Snow Brand Milk Products Co., Ltd.) was added, followed by incubation at room temperature for 2 hours. After removal, the plate was washed with PBS once.
Then, 100 μL of the RPMI-8866 cells (2×10^6 cells/mL) and 100 of the test substance at each of various concentrations diluted with a binding buffer (DMEM containing 40 mM HEPES, 0.2% BSA, and 4 mM MnCl2) were added to the plate coated with the MAdCAM-1/Fc (5×10^5 cells/well) such that 50% human serum was contained at the final concentration. Then, incubation was allowed to proceed at 30° C. for 15 to 60 minutes. After the cells were bound to the wells, the plate was washed with PBS to remove unbound cells. A buffer C (PBS containing 1.5% Triton X-100) was added in an amount 50 μL/well to the plate to lyse the bound RPMI-8866 cells. After 30 μL of a substrate buffer (Promega, CytoTox 96 Non-Radioactive Cytotoxicity Assay) was added to 30 μL of the cell lysate, a reaction was allowed to proceed at room temperature in the dark for 30 minutes. After 30 μL of a stop solution (Promega, CytoTox 96 Non-Radioactive Cytotoxicity Assay) was added to each, and then an absorbance at 490 nm was measured using a plate reader. The absorbance obtained here represents a detection result of an activity of lactate dehydrogenase (LDH) eluted in the supernatant of each well, that is, the absorbance is proportional to the number of RPMI-8866 cells bound to the MAdCAM-1 and thus remaining on the plate. The test was performed in duplicate. Provided that the absorbance of the well containing no test substance was 100%, a cell binding rate with the test substance at each of the various concentrations was figured out, and a concentration IC50 which brought about 50% binding inhibition was calculated.
The IC50 is the midpoint of a concentration-inhibition curve. Consider `Cc1cn(C)c(=O)n(-c2ccc(C[C@H](NC(=O)c3cc(F)c(NS(=O)(=O)c4ccc(NC(=O)C5(C(F)(F)F)CC5)cc4)cc3F)C(=O)O)cn2)c1=O` [Compound A56], for which the IC50 was 19 nM.
In the case of `Cn1c(=O)n(-c2ccc(C[C@H](NC(=O)c3cc(F)c(NS(=O)(=O)c4ccc(NC(=O)C5CCNCC5)cc4)cc3F)C(=O)O)cc2)c(=O)c2ccncc21` [Compound A6, (2S)-2-[[2,5-difluoro-4-[[4-(piperidine-4-carbonylamino)phenyl]sulfonylamino]benzoyl]amino]-3-[4-(1-methyl-2,4-dioxo-pyrido[3,4-d]pyrimidin-3-yl)phenyl]propanoic acid], the IC50 was 14 nM.
For `CCC(CC)C(=O)Nc1ccc(S(=O)(=O)Nc2cc(F)c(C(=O)N[C@@H](Cc3ccc(-n4c(=O)c5ccncc5n(C)c4=O)cc3)C(=O)O)cc2F)cc1` [Compound A3], the IC50 was 10 nM.
With `Cc1cn(C)c(=O)n(-c2ccc(C[C@H](NC(=O)c3cc(F)c(NS(=O)(=O)c4cc5cc(NC(=O)C(C)(C)C)ccc5[nH]4)cc3F)C(=O)O)cn2)c1=O` [Compound A76], the IC50 turned out to be 14 nM.
Turning to `Cn1cnc2c1c(=O)n(-c1ccc(C[C@H](NC(=O)c3cc(F)c(NS(=O)(=O)c4ccc(NC(=O)C(C)(C)C)cc4)cc3F)C(=O)O)cc1)c(=O)n2C` [Compound A43], the IC50 amounted to 5.8 nM.
To `Cc1c(C)n(C)c(=O)n(-c2ccc(C[C@H](NC(=O)c3cc(F)c(NS(=O)(=O)c4cc(NC(=O)C(C)(C)C)cs4)cc3F)C(=O)O)cc2)c1=O` [Compound A11] belongs 38 nM; to `Cn1ccc(=O)n(-c2ccc(C[C@H](NC(=O)c3cc(F)c(NS(=O)(=O)c4ccc(NC(=O)C(C)(C)CO)cc4)cc3F)C(=O)O)cn2)c1=O` [Compound A62], 22 nM; to `CCC(CC)C(=O)Nc1ccc(S(=O)(=O)Nc2cc(F)c(C(=O)N[C@@H](Cc3ccc(-n4c(=O)c(C)c(C)n(C)c4=O)cc3)C(=O)O)cc2F)cc1` [Compound A4], 16 nM.
To `COC1(C(=O)Nc2ccc(S(=O)(=O)Nc3cc(F)c(C(=O)N[C@@H](Cc4ccc(-n5c(=O)c6ccncc6n(C)c5=O)cc4)C(=O)O)cc3F)cc2)CC1` [Compound A16] belongs 44 nM; to `Cc1c(C)n(C)c(=O)n(-c2ccc(C[C@H](NC(=O)c3cc(F)c(NS(=O)(=O)c4cccc(NC(=O)C(C)(C)C)c4)cc3F)C(=O)O)cn2)c1=O` [Compound A50], 63 nM.
To `Cc1cn(C)c(=O)n(-c2ccc(C[C@H](NC(=O)c3cc(F)c(NS(=O)(=O)c4c[nH]c5cc(NC(=O)C(C)(C)C)ccc45)cc3F)C(=O)O)cn2)c1=O` [Compound A77] belongs 25 nM; to `Cn1c(=O)n(-c2ccc(C[C@H](NC(=O)c3cc(F)c(NS(=O)(=O)c4ccc(NC(=O)C(C)(C)C)s4)cc3F)C(=O)O)cc2)c(=O)c2ccncc21` [Compound A9], 4.5 nM; to `Cc1cn(C)c(=O)n(-c2ccc(C[C@H](NC(=O)c3cc(F)c(NS(=O)(=O)c4ccc(NC(=O)C5CCCC5)cc4)cc3F)C(=O)O)cn2)c1=O` [Compound A65], 50 nM.
Regarding `Cc1c(C)n(C)c(=O)n(-c2ccc(C[C@H](NC(=O)c3cc(F)c(NS(=O)(=O)c4ccc(NC(=O)C(C)(C)C)cc4)cc3F)C(=O)O)cc2)c1=O` [Compound A8], the IC50 was 3.7 nM.
To `Cc1cc(=O)n(-c2ccc(C[C@H](NC(=O)c3cc(F)c(NS(=O)(=O)c4ccc(NC(=O)C(C)(C)C)cc4)cc3F)C(=O)O)cn2)c(=O)n1C` [Compound A45] belongs 8.4 nM.
The same measure for `CN1C(=O)N(c2ccc(S(=O)(=O)Nc3cc(F)c(C(=O)N[C@@H](Cc4ccc(-n5c(=O)c6ccncc6n(C)c5=O)nc4)C(=O)O)cc3F)cc2)C(=O)C1(C)C` [Compound A38]: 20 nM.
The same measure for `Cc1cc(=O)n(-c2ccc(C[C@H](NC(=O)c3cc(F)c(NS(=O)(=O)c4ccc(NC(=O)C(C)(C)C)cc4)cc3F)C(=O)O)nc2)c(=O)n1C` [Compound A72]: 28 nM; for `CCC(CC)C(=O)Nc1ccc(S(=O)(=O)Nc2cc(F)c(C(=O)N[C@@H](Cc3ccc(-n4c(=O)ccn(C)c4=O)nc3)C(=O)O)cc2F)cc1` [Compound A61]: 62 nM.
